From US20260199289A1, “USE OF GLYCOGEN METABOLISM INHIBITORS FOR THE TREATMENT OF CANCER” (THE UNIVERSITY OF VERMONT AND STATE AGRICULTURAL COLLEGE, priority 2022, published 2026)
“Also recorded” adds a separate entry of the source. Where two headings read alike, the source gives them in different places.

Columns and labels:
[1] = tested on: PYG isoforms; details: cited from earlier work
[2] = tested on: HepG2 cells; details: hepatocellular carcinoma; cited from earlier work
[3] = tested on: Nthy-ori-3-1 cells; assay: Glycogen content (colorimetric assay, TEM) in normal thyroid cells; assay type: cell-based, human; details: Nthy-ori-3-1 normal thyroid cells, CP-91,149 50 μM, 24-hour incubation
Experimental: Transmission Electron Microscopy of Glycogen Deposits—Cells were seeded in 10 cm dishes and allowed to adhere overnight. […] Cells were then rinsed with PBS and lifted with trypsin for preparation for TEM as described previously. Thwe et al., “Cell-intrinsic Glycogen Metabolism Supports Early Glycolytic Reprogramming Required for Dendritic Cell Immune Responses,” Cell Metabolism 26:558-567.e555 (2017), which is hereby incorporated by reference in its entirety.
(§1) Quantification of Levels of Glycogen, Glucose-1-Phosphate, Glucose-6-Phosphate, Lactate, ATP, Glucose, NADPH, and Glutathione—Briefly, cells were seeded in 10 cm dishes (for measuring glycogen and NADPH), 6 well plates (GIP, G6P, lactate, glucose, and glutathione), or 96 well plates (ATP) and allowed to adhere overnight. CTM was aspirated and cells were rinsed with PBS before application of compounds dissolved in CTM for 24 hours, at which point cells were ~90% confluent. CTM was then aspirated, cells were rinsed with PBS, and lysed according to the respective manufacturer protocol (see Table 4) for metabolite analysis.

[4] = tested on: 8505C thyrospheres; assay: ATC stem cell thyrosphere growth; assay type: cell-based, human; details: 8505C stem cells, day 3 compared to day 1
Text: Bolf et al., “Thyroid Hormone Receptor Beta Induces a Tumor Suppressive Program in Anaplastic Thyroid Cancer,” Molecular Cancer Research 18(10):1443-1452 (2020), which is hereby incorporated by reference in its entirety. Thyrospheres per well were counted and imaged using a digital camera (Diagnostics Instruments) connected to a Nikon Eclipse TS100 inverted microscope.

[5] = tested on: 8505C cells; assay: Immunoblot of apoptosis markers and Ki-67 in ATC cells; assay type: cell-based, human; details: for apoptosis (PARP, caspase 9 and caspase 7 cleavage): six hours
Experimental: Briefly, proteins were isolated from whole cells in lysis buffer (20 mM Tris-HCl (pH 8), 137 mM NaCl, 10% glycerol, 1% Triton X-100, and 2 mM EDTA), quantified via Pierce™ BCA Protein Assay Kit (Thermo Fisher Scientific), and 25 μg protein/sample were resolved by polyacrylamide gel electrophoresis and immobilized onto nitrocellulose membranes. Membranes were blocked with 5% w/v BSA in TBS and 0.1% v/v Tween20 (Gold Bio, St Louis, MO, USA) for one hour at room temperature and incubated with primary antibodies overnight. Membranes were washed with TBS-0.1% Tween20 and secondary antibodies were applied for 1 hour at room temperature in 5% w/v BSA in TBS and 0.1% v/v Tween20. Immunoreactive proteins were detected by enhanced chemiluminescence (Thermo Scientific) on a ChemiDoc XRS+ (Bio-Rad Laboratories). Densitometry analysis was performed using ImageJ.

[6] = tested on: 8505C tumors; assay: 8505C xenograft tumor growth in nude mice; assay type: in vivo, mouse; details: intraperitoneal, 50 mg/kg CP-91,149, 10 mg/kg sorafenib, 6-7 days a week
Experimental: Ethics statement and animal modeling—All animal procedures were approved by Institutional Animal Care and Use Committee (IACUC) at the University of Vermont. All animals were maintained in pathogen-free conditions and cared for in accordance with IACUC policies and certification. All surgeries were performed with isoflurane anesthesia. Temperature-controlled post-surgical monitoring was implemented to minimize suffering. Mice carrying anaplastic thyroid tumors were euthanized at designated time points for tumor collection. Signs of ulceration or a maximum individual tumor size of 2000 mm^3 were used as a protocol-enforced endpoint.
Mice were given food and water ad libitum. […] These doses were based on previous reports.

[7] = tested on: 8505C cells; assay: Quantification of G1P, G6P, lactate, ATP, glucose, NADPH and glutathione; assay type: cell-based, human; details: 50 μM CP-91,149, 24 hours
Experimental: as §1

[8] = tested on: 8505C cells; assay: RT-qPCR of glucose transporter expression; assay type: cell-based, human; details: 50 μM CP-91,149, 24 hours
Text: RNA Extraction and Quantitative Real-Time PCR (qRT-PCR)—Total RNA was extracted using RNeasy Plus Kit (Qiagen) according to manufacturer's protocol. cDNA was synthesized using LunaScript® RT SuperMix Kit (New England Biolabs). Gene expression to validate RNA-seq analysis was quantified by qRT-PCR using Luna® Universal qPCR Master Mix (New England Biolabs) on a QuantStudio 3 real-time PCR system (Thermo Fisher Scientific). Fold change in gene expression compared to endogenous controls was calculated using the ddCT method.

[9] = tested on: 8505C tumors; assay: Staining of excised xenograft tumors (Ki-67, cleaved PARP, PAS glycogen); assay type: in vivo, mouse
[10] = immunofluorescence of excised tumors

For `CN(C)C(=O)[C@H](O)[C@H](Cc1ccccc1)NC(=O)c1cc2cc(Cl)ccc2[nH]1` [CP-91,149, 5-chloro-N-[(2S,3R)-4-(dimethylamino)-3-hydroxy-4-oxo-1-phenylbutan-2-yl]-1H-indole-2-carboxamide], the “inhibition of PYG isoforms” value [1] is given as “inhibits all PYG isoforms”, the ROS levels [2] is given as “increased ROS levels” and the autophagic adaptations [2] is given as “triggered autophagic adaptations”. For the same compound, the intrinsic apoptosis [2] was “induce intrinsic apoptosis”, the glycogen content [3] was “increased glycogen content” and the glycogen content ([3]; listed as CP) was “significantly increased glycogen content”. The “thyrosphere growth / stem cell response” value [4] was “inhibits 8505C thyrosphere growth”, the “thyrosphere growth / stem cell response” value ([4]; listed as CP) was “concentration-dependent response” and the “proliferation marker Ki-67 expression” value [5] was “inhibits proliferation”. For the same compound, the “proliferation marker Ki-67 expression” value ([5]; listed as CP) was “reduced expression of the proliferation marker Ki-67”, the “apoptosis (PARP, caspase 9 and caspase 7 cleavage)” value [5] was “induced apoptosis in ATC cells” and the “apoptosis (PARP, caspase 9 and caspase 7 cleavage)” value ([5]; listed as CP) was “significant PARP, caspase 9, and caspase 7 cleavage”. The “apoptosis (PARP, caspase 9 and caspase 7 cleavage)” value ([5]; listed as CP-911,49) was “induces apoptosis”, the tumor growth [6] was “significantly impaired tumor growth in vivo; also recorded: severely blunted ATC tumor growth in vivo; also recorded: restrict ATC tumor growth” and the tumor growth ([6]; listed as CP) was “notably stunted; also recorded: equally as effective as sorafenib”. The NADPH level ([7]; 8505C cells) was “decreased NADPH levels; also recorded: decreases the available supply of NADPH”, the “extracellular glucose / glucose uptake from the cell culture media” value ([7]; 8505C cells) was “causes an increase in glucose uptake from the cell culture media” and the “glucose-1-phosphate (G1P) level” value ([7]; 8505C cells) was “causes a buildup in glucose-1-phosphate”. The “glucose-6-phosphate (G6P) level” value ([7]; 8505C cells) was “a reduction in glucose-6-phosphate”, the lactate production ([7]; 8505C cells) was “enhances” and the “reduced glutathione (GSH)” value ([7]; 8505C cells) was “decreases the relative amount of reduced glutathione (GSH)”. The NADPH level ([7]; 8505C cells, listed as CP) was “drastic decrease in NADPH”, the “extracellular glucose / glucose uptake from the cell culture media” value ([7]; 8505C cells, listed as CP) was “significant reduction in extracellular glucose” and the “glucose-1-phosphate (G1P) level” value ([7]; 8505C cells, listed as CP) was “a buildup of the glycogen monomer, glucose-1-phosphate (G1P)”. The “glucose-6-phosphate (G6P) level” value ([7]; 8505C cells, listed as CP) was “a decrease in the glycolytic intermediate, glucose-6-phosphate (G6P)”, the “reduced glutathione (GSH)” value ([7]; 8505C cells, listed as CP) was “concomitant loss in reduced glutathione (GSH)” and the ATP levels ([7]; ATC cells) was “decreases the levels of ATP”. For the same compound, the “SLC2A1 (GLUT1) expression” value [8]; 149 was “increases the expression”, the “SLC2A3 (GLUT3) expression” value [8]; 149 was “increases the expression” and the “SLC2A4 (GLUT4) expression” value [8]; 149 was “increases the expression”. For the same compound, the “SLC2A1 (GLUT1) expression” value ([8]; listed as CP) was “increase”, the “SLC2A3 (GLUT3) expression” value ([8]; listed as CP) was “increase” and the “SLC2A4 (GLUT4) expression” value ([8]; listed as CP) was “did not change”. The “glycogen in tumor tissue (PAS staining)” value ([9]; excised tumors) was “significantly increased the level of glycogen in the tumor tissue”, the “Ki-67 expression in xenograft tumors” value [9, 10] was “reduction in Ki-67 expression” and the “apoptosis (PARP cleavage) in xenograft tumors” value [9, 10] was “induces apoptosis in vivo”. The “apoptosis (PARP cleavage) in xenograft tumors” value ([9]; immunofluorescence of excised tumors, listed as CP) was “profoundly induced apoptosis”.
